# Results: patent US11478440B2, “Combination of Elafibranor or derivatives thereof with an anti-NASH, anti-fibrotic or anti-cholestatic agent” (GENFIT, priority 2017, dated 2022)
# How the values were obtained:
# TGFβ1-induced hHSC = assay: α-SMA ELISA in TGFβ1-induced human primary hepatic stellate cells; type: cell-based
# Description: (§1) The human primary hepatic stellate cells (hHSC) (Innoprot) were cultured in STeCM medium (ScienCell cat #5301) that was supplemented with 2% fetal bovine serum (FBS, ScienCell cat #0010), 1% penicillin/streptomycin (ScienCell cat #0503) and stellate cell growth supplement (SteCGS; ScienCell cat #5352). Cell culture flasks were coated with Poly-L Lysine (Sigma cat #P4707) for a better adherence.
# For these experiments, a checkerboard matrix was generated. ELA and component (ii) stocks were serially diluted in DMSO in 5-points series in a row (ELA) and a 11-points series in a column (component (ii)) of a 96-well plate. Subsequently, the 5×11 combination matrix was generated by 1:1 mixing of all single agent concentrations. The test concentrations for each compound were chosen based on the respective IC50 of each compound as single agent obtained by measuring α-SMA content in the HSC model stimulated with TGF-β1.
# The human primary hepatic stellate cells (hHSC) (Innoprot) were cultured under standard conditions, as described above. The cells were subsequently plated at a density of 2×10^4 cells/well into 96-well plates for the measure of α-SMA by ELISA. The next day, cell-culture medium was removed, and cells were washed with PBS (Invitrogen cat #14190). hHSC were deprived for 24 hours in serum-free and SteCGS-free medium. For the treatments with ELA, component (ii) and the respective ELA/component (ii) combinations, the serum-deprived hHSC were preincubated for 1 hour with the compounds followed by addition of the profibrogenic stimuli TGF-β1 (PeproTech cat #100-21, 1 ng/mL) in serum-free and SteCGS-free medium for an additional 48 hour period.
# The level of α-SMA was measured using a Sandwich ELISA. Briefly, the wells of an ELISA plate were first coated with the capture antibody (mouse monoclonal anti-ACTA2, Abnova) at 4° C. overnight. After 3 washes in PBS+0.2% Tween 20, a blocking solution consisting of PBS+0.2% BSA was added for one hour followed by another washing cycle. The cell lysates were transferred into the wells for binding to the capture antibody for a period of 2 h at room temperature. After the washing procedure, the detection antibody (biotinylated mouse monoclonal anti-ACTA2, Abnova) was added for 2 hours at room temperature followed by 3 washes. For the detection, an HRP-conjugated Streptavidin (R&D Systems cat #DY998) was first applied for 30 min at room temperature. After washing, the HRP substrate TMB (BD, #555214) was added and incubated for 7 min at room temperature in the dark. Upon oxidation, TMB forms a water-soluble blue reaction product that becomes yellow with addition of sulfuric acid (solution stop), enabling accurate measurement of the intensity at 450 nm using a spectrophotometer. The developed color is directly proportional to the amount of α-SMA present in the lysate.
# as §1, with “Cell-culture” for “Cell culture”
# For these experiments, a checkerboard matrix was generated. CVC and Elafibranor stocks were serially diluted in DMSO in a 5-points series in a row (Elafibranor) and a 6-points series in a column (Cenicriviroc) of a 96-well plate. Subsequently, the […] combination matrix was generated by 1:1 mixing of all single agent concentrations. The test concentrations for each compound were chosen based on the respective IC50 of each compound as single agent obtained by measuring α-SMA content in the HSC model stimulated with TGF-β1.
# The human primary hepatic stellate cells (hHSC) (Innoprot) were cultured under standard conditions, as described above. […]
# [1] = system: mice with NASH (CDFF-fed mice); assay: Mouse fibrosing-NASH model (CDFF diet, 8 weeks); type: in vivo, C57Bl/6J mice
# Description: The preventive effects of the combinations of elafibranor with selonsertib, GKT-831 or GS-0976 were assessed in mice fed a choline-deficient, […] diet (CDAA) supplemented with 2% cholesterol, 30% milk fat diet and high fructose corn syrup 55 (55% fructose/45% glucose for a final concentration of 42 g/L) in drinking water (Mells et al J Nutr Biochem 2015) (CDFF diet). 5-6 weeks old male C57Bl/6J mice were fed a control (CSAA) diet (n=4), CDFF (n=12), or CDFF supplemented with elafibranor (1 or 3 mg/kg/day), selonsertib (30 mg/kg/day), GKT-831 ([…]) alone or in combination (n=8 per group) for 8 weeks.
# The body weight, the food and water intake were monitored twice per week. On the last day of treatment, plasma samples were obtained from retro-orbital blood sampling and mice were sacrificed after a 6 h-fasting period. The liver was rapidly excised for biochemical and histological analyses. All animal procedures were performed according to standard protocols and in accordance with the standard recommendations for the proper care and use of laboratory animals.
# The liver slices were fixed in a formalin 4% solution. Then, the liver pieces were washed 30 minutes in PBS, and dehydrated in ethanol solutions (successive baths at 70, 80, 95 and 100% ethanol). The liver pieces were incubated in three different baths of Xylene (Honeywell cat #534056), followed by two baths in liquid paraffin (59° C.). Liver pieces were then put into racks that were gently filled with HISTOWAX to completely cover the tissue.
# Liver sections were deparaffinized, rehydrated and incubated for 3 minutes in Mayer's Hematoxylin (Microm, cat #F/C0303). Then, the liver sections were rinsed in water and incubated 1 minute in a Eosin Y 0.5% alcoholic (VWR, cat #1.02439.0500) and Erythrosin 0.5% solution (VWR, cat #1.15936.0010), and rinsed in with ethanol. Sections were then incubated for 2 minutes in Safranin, and were eventually dehydrated and mounted using the CV Mount medium (Leica, cat #046430011).
# (§2) Liver sections were deparaffinized, rehydrated and incubated for 15 minutes in a solution of Fast Green FCF 0.1% (Sigma-Aldrich, cat #F7258) before rinsing in a bath of 0.5% acetic acid (Panreac, cat #131008.1611). Then, the liver sections were rinsed in water and incubated 30 minutes in a solution of 0.1% sirius red (Direct Red 80, Fluka cat #43665) in saturated aqueous picric acid (Sigma-Aldrich cat #P6744). Sections were then dehydrated, and mounted using the CV Mount medium (Leica, cat #14046430011).
# (§3) A technician blinded to the source of each liver specimen performed histological examinations. Virtual slides were generated using the Pannoramic 250 scanner from 3D Histech. For each animal, a score summarizing the main histological lesions of NASH was attributed according to the NASH Clinical Research Network (Kleiner 2005, Brunt 1999). Briefly, steatosis, lobular inflammation and hepatocyte ballooning were scored. The NAFLD Activity Score (NAS) was established for each individual as the unweighted sum of the steatosis (0-3), lobular inflammation (0-3) and the ballooning (0-2) injury grading.
# (§4) Using Quant Center software (3D Histech, including Pattern Quant and Histo Quant modules), collagen-stained areas were quantified. Briefly, Pattern Quant was used to detect the tissue and measure its surface. Then, Histo Quant was used to detect the stained collagen content and measure its surface, based on a color threshold method. The fibrosis area was then expressed as the percentage of the collagen surface to the whole tissue per animal.
# The hepatic collagen content was determined using the appropriate QuickZyme kit (Total collagen assay, cat #QZB-totcol2). The assay is based on the detection of hydroxyproline, which is a non-proteinogenic amino acid mainly found in the triple helix of collagen. […]
# [2] = system: fibrosing NASH-model of rats fed a CDAA+1% cholesterol diet; assay: Chronic CDAA+1% cholesterol rat model: liver histology (picrosirius fibrosis surface, NASH lesions); type: in vivo, Wistar rats; conditions: GFT505 3 mg/kg/d, OCA 10 mg/kg/d, alone or combined; 12 weeks in diet
# Description: (§5) The preventive effects of Elafibranor alone, OCA alone and the combination of both were assessed in a fibrosing NASH-model of rats fed a CDAA+1% cholesterol diet. 150-175 g male Wistar rats were fed a control (CSAA) diet, CDAA+1% cholesterol diet, or CDAA+1% cholesterol diet supplemented with Elafibranor 1, 3 and 10 mg/kg/day, OCA 10 and 30 mg/kg/day or combined drugs (Elafibranor 1, 3 and 10 mg/kg/day combined to OCA 10 mg/kg/day) for 12 weeks.
# (§6) The body weight and the food intake were monitored twice per week. On the last day of treatment, rats were sacrificed after a 6 h fasting period. The liver was rapidly excised for biochemical and histological studies.
# The liver slices were first fixed for 12 hours in formalin 4% solution. Then, the liver pieces were washed 30 minutes in PBS, and dehydrated in ethanol solutions (successive baths at 70, 80, 95 and 100% ethanol). The liver pieces were incubated in three different baths of Xylene (Sigma-Aldrich cat #534056), followed by two baths in liquid paraffin (56° C.). Liver pieces were then put into racks that were gently filled with HISTOWAX to completely cover the tissue.
# The paraffin blocks containing the tissue pieces were removed from the racks and stored at room temperature. The liver blocks were cut into 3 μm slices.
# Liver sections were deparaffinized, rehydrated and incubated for 3 minutes in Mayer's Hematoxylin (Microm, cat #F/C0303). Then, the liver sections were rinsed in water and incubated 1 minute in Eosin G (VWR, cat #1.09844.1000). Sections were rinsed in water then dehydrated, and mounted using the CV Mount medium (Leica, cat #14046430011).
# as §2
# as §3, with “hepatocytes” for “hepatocyte”, “(NAS score)” for “(NAS)”
# as §4
# [3] = system: fibrosing NASH-model of rats fed a CDAA+1% cholesterol diet; assay: Chronic CDAA+1% cholesterol rat model: hepatic collagen content (hydroxyproline); type: in vivo, Wistar rats; conditions: GFT505 3 mg/kg/d, OCA 10 mg/kg/d, alone or combined; 12 weeks in diet
# Description: as §5, §6
# The hepatic collagen content was determined using the appropriate QuickZyme kit (Total collagen assay, cat #QZB-totcol2). The assay is based on the detection of hydroxyproline, which is a non-proteinogenic amino acid mainly found in the triple helix of collagen. Thus, hydroxyproline in tissue hydrolysates can be used as a direct measure of the amount of collagen present in the tissue (without discrimination between procollagen, mature collagen and collagen degradation products).
# Complete hydrolysis of tissue samples in 6M HCl at 95° C. is required before dosing the hydroxyproline. The assay results in the generation of a chromogen with a maximum absorbance at 570 nm. Results are expressed as mg of collagen/g of liver.
# [4] = system: fibrosing NASH-model of rats fed a CDAA+1% cholesterol diet; assay: Chronic CDAA+1% cholesterol rat model: hepatic gene expression (qPCR); type: in vivo, Wistar rats; conditions: liver; GFT505 3 mg/kg/d, OCA 10 mg/kg/d, alone or combined; 12 weeks
# Description: as §5, §6
# Total RNA was isolated from rat livers using RNeasy Mini Kit (Qiagen) following manufacturer's instructions. Total RNA were reverse transcribed into cDNA using M-MLV RT (Moloney Murine Leukemia Virus Reverse Transcriptase) (Invitrogen cat #28025) in 1×RT buffer (Invitrogen), 0.5 mM DTT (Invitrogen), 0.18 mM dNTPs (Promega), 200 ng pdN6 (Amersham) and 30 U of RNase inhibitor (Promega).
# Quantitative PCR was then carried out using the CFX96 TOUCH Real-Time PCR Detection System (Biorad). Briefly, the PCR reactions were performed in 96-WP format in 25 μl of total volume containing 1 μL of reverse transcription reaction, 0.5 μL of reverse and forward primers (10 pmol each), and 12.5 μl of 2×iQ SYBR Green Supermix (BioRad), using the following primer sequences:
# Expression levels were normalized using the expression of RPLP0 gene as a housekeeping gene of reference in samples. For each gene, the standard curves were drawn by selecting the best points (at least three points) in order to have PCR reaction efficiency close to 100% and a correlation coefficient close to 1. Expression levels were determined using the standard curve equation for both the housekeeping gene and the target gene (taking into account the specific PCR efficiency of each target gene).
compound,measurement,setting,value
"CCCCOCCOc1ccc(-c2ccc3c(c2)/C=C(/C(=O)Nc2ccc([S@@+]([O-])Cc4cncn4CCC)cc2)CCCN3CC(C)C)cc1 [CVC, Cenicriviroc, reference compound]","antifibrotic activity (α-SMA), single agent",TGFβ1-induced hHSC; 5 μM of CVC alone,does not show any antifibrotic activity
same,"antifibrotic activity (α-SMA), single agent","TGFβ1-induced hHSC; TGFβ1-activated hHSC, dose range",did not show a significant effect at all doses
"Cc1cc(F)c(C(=O)Nc2cccc(-c3nncn3C(C)C)n2)cc1-n1cnc(C2CC2)c1 [Selonsertib, reference compound]","hepatic fibrosis (histology, hepatic collagen content, PIIINP and TIMP-1)","[1]; elafibranor 3 mg/kg/day, selonsertib 30 mg/kg/day, alone or combined","improved hepatic fibrosis in this model, albeit to a minor extent than elafibranor"
"CN(C)c1cccc(-c2c3c(=O)n(-c4ccccc4Cl)[nH]c3cc(=O)n2C)c1 [GKT-831, 2-(2-chlorophenyl)-4-[3-(dimethylamino)phenyl]-5-methyl-1H-pyrazolo[4,3-c]pyridine-3,6(2H,5H)-dione, reference compound]",effect on NASH and fibrosis,[1]; GKT-831 60 mg/kg/day alone,no beneficial effect
"COc1ccccc1[C@H](Cn1c(=O)n(C(C)(C)C(=O)O)c(=O)c2c(C)c(-c3ncco3)sc21)OC1CCOCC1 [GS-0976, reference compound]",effect on liver fat and body weight,[1]; GS-0976 30 mg/kg/day alone,mild beneficial effect
"CC[C@H]1[C@@H](O)[C@@H]2[C@H](CC[C@]3(C)[C@@H]([C@H](C)CCC(=O)O)CC[C@@H]23)[C@@]2(C)CC[C@@H](O)C[C@@H]12 [OCA, obeticholic acid, reference compound]","Fibrosis surface, percentage over the untreated CDAA + 1% cholesterol rats",[2],74% ± 45%
same,"Hepatic collagen content, percentage over the untreated CDAA + 1% cholesterol rats",[3],67% ± 23%
same,"CCR5 mRNA level (marker of inflammation), percentage over the untreated CDAA + 1% cholesterol rats",[4],81% ± 28%
same,"TGFβ1 mRNA level, percentage over the untreated CDAA + 1% cholesterol rats",[4],110% ± 23%
same,"TIMP1 mRNA level, percentage over the untreated CDAA + 1% cholesterol rats",[4],110% ± 43%
same,"αSMA mRNA level, percentage over the untreated CDAA + 1% cholesterol rats",[4],109% ± 68%
